What was measured:
TIMP-1 = experiment: Hepatic expression of TIMP-1 by qRT-PCR, CDHFD/NaNO2 rat model of NASH; assay type: in vivo, male Wistar rats; settings: vs vehicle; rats; Formula (I) 0.2% in diet, Formula (III) 30 mg/kg/day, week 4 to 14
Protocol: (§1) The following study was conducted to evaluate the efficacy of the combination of an ASK1 inhibitor and an FXR agonist in a rodent model of non-alcoholic steatohepatitis (NASH), relative to the efficacy of the individual agents alone in the model. NASH was induced in male Wistar rats by administration of a choline-deficient high fat diet (CDHFD) combined with the chronic administration of sodium nitrite (CDHFD/NaNO2). The model capitalizes on the “two hit theory” of NASH by inducing both metabolic dysfunction (CDHFD) and oxidative stress (NaNO2) in the liver to result in hepatic fibrosis that is similar in character and severity to that seen in patients with advanced NASH. […] The following endpoints were assessed at the completion of the 14 week study: i) liver fibrosis measured by liver hydroxyproline (OHP) content and by quantitative morphometric analysis of collagen content by Picosirius red (PSR) staining; ii) myofibroblast activation in liver sections as measured by quantitative IHC of the myofibroblast marker desmin; and, iii) Col1a1 and Timp1 in liver tissue measured by RT-PCR. […] All endpoints were assessed at the completion of the 14 week study protocol. […] Quantitative PCR was performed and analyzed using Absolute QPCR Rox Mix (Life Technologies, Cat No # AB-1132) and a 384-format ABI 7900HT Sequence Detection System (Applied Biosystems). […]

FFD mice = experiment: Plasma bile acids by LC-MS/MS in FFD mouse model of NASH; assay type: in vivo, male C57BL/6 mice; settings: Formula (I) 0.15% admixture in diet, Formula (III) 10 mg/kg PO QD, months 7-10
Protocol: The following study was conducted to evaluate the efficacy of the combination of an ASK1 inhibitor and an FXR agonist in a mouse model of non-alcoholic steatohepatitis (NASH), relative to the efficacy of the individual agents alone in the model. NASH was induced in male C57BL/6 mice by chronic administration of a “fast food” diet (FFD) high in saturated fats, cholesterol and sugars for a total of 10 months, whereas lean control animals were maintained on a normal chow diet. A NASH phenotype was established in FFD mice compared to control mice by 7 months, and was characterized by obesity, hypercholesterolemia, and AST/ALT elevation; and by histological features of NASH such as hepatocellular macrovesicular steatosis and ballooning degeneration. See Charlton M, et al. Fast food diet mouse: novel small animal model of NASH with ballooning, progressive fibrosis, and high physiological fidelity to the human condition. American journal of physiology. Gastrointestinal and liver physiology 2011; 301 (5):G825-34. […] Endpoint analyses included morphometric quantification of liver steatosis (% of steatotic area), liver cholesterol content, serum ALT/AST levels, serum bile acid levels, and nanostring evaluation of gene expression. […] Plasma samples were sent to Metabolon, Inc. (Durham, N.C.) for quantification of primary and secondary bile acids and their conjugates by LC-MS/MS.

Col1a1 = experiment: Hepatic expression of Col1a1 by qRT-PCR, CDHFD/NaNO2 rat model of NASH; assay type: in vivo, male Wistar rats; settings: vs vehicle; rats; Formula (I) 0.2% in diet, Formula (III) 30 mg/kg/day, week 4 to 14
Protocol: as §1

O=C(O)c1ccnc(N2CC(O)(c3ccc(OCc4c(-c5c(Cl)cccc5Cl)noc4C4CC4)cc3Cl)C2)c1 [Formula (III)]
reduction of hepatic TIMP-1 expression induced by CDHFD/NaNO2 (TIMP-1): did not significantly reduce | reduction in plasma bile acid levels (FFD mice): 46% | reduction of hepatic Col1a1 expression induced by CDHFD/NaNO2 (Col1a1): 44%

O=C(Nc1cccc(-c2nncn2C2CC2)c1)c1cc(-n2cnc(C3CC3)c2)ccn1 [Formula (I)]
reduction of hepatic TIMP-1 expression induced by CDHFD/NaNO2 (TIMP-1): 28% | reduction in plasma bile acid levels (FFD mice): 52% | reduction of hepatic Col1a1 expression induced by CDHFD/NaNO2 (Col1a1): 65%
